According to article doi:10.1101/2023.12.04.569845, “Identification of 4-(6-((2-methoxyphenyl)amino)pyrazin-2-yl)benzoic acids as CSNK2A inhibitors with antiviral activity and improved selectivity over PIM3” (bioRxiv, 2023):
Like-named read-outs stand apart in the source and are kept apart here.

Legend:
Assay in all cases: biochemical
Design in all cases: Thermal shift (DSF, SYPRO Orange) Tm shift of recombinant kinase domains at 10 uM compound
BMX = target: T1, BMX (Homo sapiens, UniProt P51813)
T1 sequence (P51813 1-675): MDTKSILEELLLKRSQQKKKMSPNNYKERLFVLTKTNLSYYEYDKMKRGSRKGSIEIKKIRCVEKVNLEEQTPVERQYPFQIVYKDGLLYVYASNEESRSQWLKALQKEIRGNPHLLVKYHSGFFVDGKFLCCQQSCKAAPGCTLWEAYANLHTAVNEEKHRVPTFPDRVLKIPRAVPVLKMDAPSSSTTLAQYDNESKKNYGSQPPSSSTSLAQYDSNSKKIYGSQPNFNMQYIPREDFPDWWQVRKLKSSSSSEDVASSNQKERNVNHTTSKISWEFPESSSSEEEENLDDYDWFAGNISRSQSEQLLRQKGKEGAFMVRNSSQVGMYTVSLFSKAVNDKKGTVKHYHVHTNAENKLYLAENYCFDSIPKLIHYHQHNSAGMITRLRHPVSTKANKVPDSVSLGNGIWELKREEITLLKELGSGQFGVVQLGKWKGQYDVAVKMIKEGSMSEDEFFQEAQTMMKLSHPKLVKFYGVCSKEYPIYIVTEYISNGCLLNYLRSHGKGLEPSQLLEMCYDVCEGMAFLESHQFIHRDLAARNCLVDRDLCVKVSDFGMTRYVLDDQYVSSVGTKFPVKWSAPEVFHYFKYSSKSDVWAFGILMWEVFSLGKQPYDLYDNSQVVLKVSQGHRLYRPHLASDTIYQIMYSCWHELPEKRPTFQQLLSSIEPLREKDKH

BRAF = BRAF (Homo sapiens, UniProt P15056)
BRAF, sequence (P15056 whole entry): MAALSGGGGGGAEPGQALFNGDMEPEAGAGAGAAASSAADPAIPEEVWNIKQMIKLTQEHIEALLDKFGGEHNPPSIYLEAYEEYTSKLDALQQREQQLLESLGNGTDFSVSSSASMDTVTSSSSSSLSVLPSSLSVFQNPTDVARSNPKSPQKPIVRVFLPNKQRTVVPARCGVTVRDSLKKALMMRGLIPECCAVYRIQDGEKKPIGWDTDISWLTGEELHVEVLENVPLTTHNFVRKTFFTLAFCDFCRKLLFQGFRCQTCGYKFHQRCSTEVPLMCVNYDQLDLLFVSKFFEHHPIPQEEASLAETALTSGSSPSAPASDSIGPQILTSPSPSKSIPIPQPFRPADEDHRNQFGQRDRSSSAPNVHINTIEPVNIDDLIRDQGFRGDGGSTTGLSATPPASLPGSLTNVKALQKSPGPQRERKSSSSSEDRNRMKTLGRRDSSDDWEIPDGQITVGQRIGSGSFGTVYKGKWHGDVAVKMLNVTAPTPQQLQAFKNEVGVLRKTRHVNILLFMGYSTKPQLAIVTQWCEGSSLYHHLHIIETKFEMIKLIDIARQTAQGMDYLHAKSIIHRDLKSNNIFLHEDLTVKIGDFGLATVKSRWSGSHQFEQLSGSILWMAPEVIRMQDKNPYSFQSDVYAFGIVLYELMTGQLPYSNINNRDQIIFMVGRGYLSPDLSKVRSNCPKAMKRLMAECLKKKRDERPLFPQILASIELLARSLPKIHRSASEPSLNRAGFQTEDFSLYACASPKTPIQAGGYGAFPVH

CAMK1D = CAMK1D (Homo sapiens, UniProt Q8IU85)
CAMK1D, sequence (Q8IU85 whole entry): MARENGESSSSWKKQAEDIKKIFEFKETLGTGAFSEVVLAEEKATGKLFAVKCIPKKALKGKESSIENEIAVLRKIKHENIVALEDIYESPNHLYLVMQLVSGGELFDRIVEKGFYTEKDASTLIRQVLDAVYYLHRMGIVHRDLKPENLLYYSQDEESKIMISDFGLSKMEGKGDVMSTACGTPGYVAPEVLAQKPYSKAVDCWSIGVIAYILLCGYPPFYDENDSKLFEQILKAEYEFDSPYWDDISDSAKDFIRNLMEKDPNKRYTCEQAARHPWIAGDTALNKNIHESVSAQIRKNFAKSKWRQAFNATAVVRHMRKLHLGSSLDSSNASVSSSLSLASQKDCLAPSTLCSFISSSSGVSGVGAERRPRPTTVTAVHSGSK

CAMK2B = CAMK2B (Homo sapiens, UniProt Q13554)
CAMK2B, sequence (Q13554 whole entry): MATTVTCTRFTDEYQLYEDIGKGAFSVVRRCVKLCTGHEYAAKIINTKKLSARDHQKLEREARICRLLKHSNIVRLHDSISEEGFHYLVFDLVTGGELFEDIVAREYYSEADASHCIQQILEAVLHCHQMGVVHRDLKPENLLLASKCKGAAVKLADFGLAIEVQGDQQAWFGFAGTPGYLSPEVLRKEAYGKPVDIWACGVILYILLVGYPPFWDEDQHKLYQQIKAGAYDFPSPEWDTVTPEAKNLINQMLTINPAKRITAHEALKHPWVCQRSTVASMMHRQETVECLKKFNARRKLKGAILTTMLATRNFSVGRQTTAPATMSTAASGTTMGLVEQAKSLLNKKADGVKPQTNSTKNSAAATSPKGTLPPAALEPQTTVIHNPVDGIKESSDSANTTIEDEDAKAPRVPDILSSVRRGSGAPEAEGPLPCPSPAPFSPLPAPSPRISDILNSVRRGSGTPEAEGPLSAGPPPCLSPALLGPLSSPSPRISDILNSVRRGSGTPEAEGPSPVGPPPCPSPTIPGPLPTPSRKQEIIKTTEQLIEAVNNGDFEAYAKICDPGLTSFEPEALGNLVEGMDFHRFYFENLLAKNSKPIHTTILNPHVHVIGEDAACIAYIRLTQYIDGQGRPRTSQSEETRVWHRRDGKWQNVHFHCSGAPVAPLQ

DMPK1 = target: T2, DMPK1 (Homo sapiens, UniProt Q09013)
T2 construct: gene DMPK
T2 sequence (Q09013 1-629): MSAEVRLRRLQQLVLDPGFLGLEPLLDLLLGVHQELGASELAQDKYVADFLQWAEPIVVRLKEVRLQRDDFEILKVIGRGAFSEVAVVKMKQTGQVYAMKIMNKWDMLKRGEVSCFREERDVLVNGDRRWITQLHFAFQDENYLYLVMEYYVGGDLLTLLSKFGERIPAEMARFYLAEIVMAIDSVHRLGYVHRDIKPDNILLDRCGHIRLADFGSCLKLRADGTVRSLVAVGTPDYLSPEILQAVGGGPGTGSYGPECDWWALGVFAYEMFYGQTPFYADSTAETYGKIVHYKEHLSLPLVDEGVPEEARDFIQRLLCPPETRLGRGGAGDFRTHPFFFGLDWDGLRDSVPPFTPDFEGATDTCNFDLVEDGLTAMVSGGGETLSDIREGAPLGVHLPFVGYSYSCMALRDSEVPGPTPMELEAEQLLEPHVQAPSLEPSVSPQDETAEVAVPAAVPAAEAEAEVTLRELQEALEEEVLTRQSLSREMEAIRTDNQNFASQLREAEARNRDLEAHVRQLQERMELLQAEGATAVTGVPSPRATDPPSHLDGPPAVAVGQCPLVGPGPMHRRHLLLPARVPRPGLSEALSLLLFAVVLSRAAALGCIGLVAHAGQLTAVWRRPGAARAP

DYRK1A = DYRK1A (Homo sapiens, UniProt Q13627)
EphA2 = EphA2 (Homo sapiens, UniProt P29317)
EphA2, sequence (P29317 whole entry): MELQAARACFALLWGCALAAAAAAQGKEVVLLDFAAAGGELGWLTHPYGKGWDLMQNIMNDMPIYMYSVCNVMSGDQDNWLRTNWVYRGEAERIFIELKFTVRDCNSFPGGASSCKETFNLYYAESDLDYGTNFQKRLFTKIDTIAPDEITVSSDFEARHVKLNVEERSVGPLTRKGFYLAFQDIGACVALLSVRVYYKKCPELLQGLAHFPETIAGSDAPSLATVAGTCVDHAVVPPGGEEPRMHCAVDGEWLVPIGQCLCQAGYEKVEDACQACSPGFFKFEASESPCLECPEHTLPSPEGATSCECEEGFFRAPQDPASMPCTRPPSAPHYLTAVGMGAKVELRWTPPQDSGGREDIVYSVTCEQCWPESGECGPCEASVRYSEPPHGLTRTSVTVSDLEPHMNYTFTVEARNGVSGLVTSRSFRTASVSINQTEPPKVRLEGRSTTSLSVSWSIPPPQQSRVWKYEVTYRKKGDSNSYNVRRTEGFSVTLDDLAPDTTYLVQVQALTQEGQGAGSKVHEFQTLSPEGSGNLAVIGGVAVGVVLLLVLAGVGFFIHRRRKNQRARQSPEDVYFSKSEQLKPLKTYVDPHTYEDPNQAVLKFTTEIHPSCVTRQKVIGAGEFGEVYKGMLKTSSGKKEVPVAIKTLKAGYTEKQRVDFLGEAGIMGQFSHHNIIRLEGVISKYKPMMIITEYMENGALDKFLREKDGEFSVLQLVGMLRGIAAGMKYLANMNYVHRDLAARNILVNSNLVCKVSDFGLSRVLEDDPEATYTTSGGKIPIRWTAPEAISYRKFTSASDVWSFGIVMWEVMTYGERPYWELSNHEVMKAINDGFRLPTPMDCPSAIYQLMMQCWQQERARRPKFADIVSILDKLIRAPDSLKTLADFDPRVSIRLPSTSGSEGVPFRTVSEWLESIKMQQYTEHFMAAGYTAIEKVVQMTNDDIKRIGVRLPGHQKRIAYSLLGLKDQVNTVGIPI

JNK1 = target: T3, JNK1 (Homo sapiens, UniProt P45983)
T3 construct: gene MAPK8
T3 sequence (P45983 whole entry): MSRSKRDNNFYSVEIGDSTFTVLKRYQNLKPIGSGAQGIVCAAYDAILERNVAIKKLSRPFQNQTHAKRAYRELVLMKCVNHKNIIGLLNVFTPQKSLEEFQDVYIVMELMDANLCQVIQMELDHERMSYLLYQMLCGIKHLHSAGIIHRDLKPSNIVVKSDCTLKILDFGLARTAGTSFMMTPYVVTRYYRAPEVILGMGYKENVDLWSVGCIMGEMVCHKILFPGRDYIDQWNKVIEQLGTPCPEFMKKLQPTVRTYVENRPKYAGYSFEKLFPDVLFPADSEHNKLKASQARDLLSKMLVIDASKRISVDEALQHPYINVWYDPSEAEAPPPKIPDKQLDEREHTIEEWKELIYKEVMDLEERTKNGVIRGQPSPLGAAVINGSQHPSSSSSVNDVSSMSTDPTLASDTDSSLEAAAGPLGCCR

MEK4 = target: T4, MEK4 (Homo sapiens, UniProt P45985)
T4 construct: gene MAP2K4; kinase domain
T4 sequence (P45985 1-399): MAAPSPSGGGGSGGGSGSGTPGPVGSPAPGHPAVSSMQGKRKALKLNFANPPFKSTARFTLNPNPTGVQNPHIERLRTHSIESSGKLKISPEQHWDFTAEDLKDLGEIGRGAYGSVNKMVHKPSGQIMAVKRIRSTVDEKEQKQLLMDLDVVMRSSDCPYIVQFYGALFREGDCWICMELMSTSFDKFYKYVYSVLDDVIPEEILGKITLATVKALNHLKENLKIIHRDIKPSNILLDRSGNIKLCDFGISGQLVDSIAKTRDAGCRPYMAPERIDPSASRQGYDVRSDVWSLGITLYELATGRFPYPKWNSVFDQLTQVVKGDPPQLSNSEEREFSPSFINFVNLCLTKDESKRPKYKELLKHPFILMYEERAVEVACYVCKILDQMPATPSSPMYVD

MST4 = target: T5, MST4 (Homo sapiens, UniProt Q9P289)
T5 construct: gene STK26
T5 sequence (Q9P289 whole entry): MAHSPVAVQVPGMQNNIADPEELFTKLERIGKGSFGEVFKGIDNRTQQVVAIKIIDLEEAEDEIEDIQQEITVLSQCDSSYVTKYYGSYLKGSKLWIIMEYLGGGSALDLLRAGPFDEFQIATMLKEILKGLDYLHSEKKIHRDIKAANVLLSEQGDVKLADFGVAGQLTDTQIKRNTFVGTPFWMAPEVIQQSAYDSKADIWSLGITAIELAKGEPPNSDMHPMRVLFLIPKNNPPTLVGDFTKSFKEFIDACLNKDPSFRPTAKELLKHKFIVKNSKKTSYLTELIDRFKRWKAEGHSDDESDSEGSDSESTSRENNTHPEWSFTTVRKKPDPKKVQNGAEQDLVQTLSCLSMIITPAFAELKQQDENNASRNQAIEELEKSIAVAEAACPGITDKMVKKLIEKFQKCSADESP

STLK3 = target: T6, STLK3 (Homo sapiens, UniProt Q9UEW8)
T6 construct: gene STK39

SMILES: COc1ccc(OC(C)C)cc1Nc1cncc(-c2ccc(C(=O)O)cc2)n1 [7c]
- ΔTm at 10 µM (BMX; read-out: 7c): 1 °C
- ΔTm at 10 µM (BRAF; read-out: 7c): 7 °C
- ΔTm at 10 µM (CAMK1D; read-out: 7c): 0 °C
- ΔTm at 10 µM (CAMK2B; read-out: 7c): 1 °C
- ΔTm at 10 µM (DMPK1; read-out: 7c): 0 °C
- ΔTm at 10 µM (DYRK1A; read-out: 7c): 5 °C
- ΔTm at 10 µM (EphA2; read-out: 7c): 1 °C
- ΔTm at 10 µM (JNK1; read-out: 7c): 1 °C
- ΔTm at 10 µM (MEK4; read-out: 7c): 2 °C
- ΔTm at 10 µM (MST4; read-out: 7c): -1 °C
- ΔTm at 10 µM (STLK3; read-out: 7c): 0 °C

SMILES: CC(C)Nc1ccc2cnn(-c3cncc(-c4ccc(C(=O)O)cc4)n3)c2c1 [compound 2, 2]
- ΔTm at 10 µM (BMX; read-out: 2): 3 °C
- ΔTm at 10 µM (BRAF; read-out: 2): 6 °C
- ΔTm at 10 µM (CAMK1D; read-out: 2): 2 °C
- ΔTm at 10 µM (CAMK2B; read-out: 2): 2 °C
- ΔTm at 10 µM (DMPK1; read-out: 2): 0 °C
- ΔTm at 10 µM (DYRK1A; read-out: 2): 7 °C
- ΔTm at 10 µM (EphA2; read-out: 2): 1 °C
- ΔTm at 10 µM (JNK1; read-out: 2): 6 °C
- ΔTm at 10 µM (MEK4; read-out: 2): 5 °C
- ΔTm at 10 µM (MST4; read-out: 2): 3 °C
- ΔTm at 10 µM (STLK3; read-out: 2): 1 °C

SMILES: CC(C)Oc1ccc2ccn(-c3cncc(-c4ccc(C(=O)O)cc4)n3)c2c1 [6c]
- ΔTm at 10 µM (BMX; read-out: 6c): 2 °C
- ΔTm at 10 µM (BRAF; read-out: 6c): 8 °C
- ΔTm at 10 µM (CAMK1D; read-out: 6c): 0 °C
- ΔTm at 10 µM (CAMK2B; read-out: 6c): 2 °C
- ΔTm at 10 µM (DMPK1; read-out: 6c): 0 °C
- ΔTm at 10 µM (DYRK1A; read-out: 6c): 6 °C
- ΔTm at 10 µM (EphA2; read-out: 6c): 3 °C
- ΔTm at 10 µM (JNK1; read-out: 6c): 3 °C
- ΔTm at 10 µM (MEK4; read-out: 6c): 9 °C
- ΔTm at 10 µM (MST4; read-out: 6c): -4 °C
- ΔTm at 10 µM (STLK3; read-out: 6c): 0 °C
